Measured values as given in patent publication US11446269B2, “Methods of reducing or preventing oxidation of small dense LDL or membrane polyunsaturated fatty acids” (Amarin Pharmaceuticals Ireland Limited, priority 2014, dated 2022).

Tested on: HUVECs
Assay: NO and ONOO^− release from HUVECs pretreated with agents, then oxLDL (Example 11, objective 1)
Assay type: cell-based, human
Conditions: agents 10 μM, 30 min pretreatment, then oxLDL 11 mg/dL up to 3 hr
Protocol: Human umbilical vein endothelial cells (HUVECs) were obtained from healthy, female donors and isolated into primary, proliferating cell cultures (Clonetics, San Diego, Calif.). […] The confluent cells (4 to 5×10^5 cells/35 mm dish) were plated with minimum essential medium containing 3 mM L-arginine and 0.1 mM BH4 [(6R)-5,6,7,8-tetrahydrobiopterin]. Before experimental use, the cells (from second or third passage) were rinsed twice with Tyrode-HEPES buffer with 1.8 mM CaCl2.
Venous blood was collected from healthy volunteers into vacutainer tubes containing sodium EDTA. […] The LDL subfraction was retained for additional experimentation. Plasma and lipoprotein fractions were maintained at 4° C. and protected from excessive exposure to light. Prior to oxidation experiments, EDTA was removed from the lipoprotein fraction using PD-10 desalting columns (GE Healthcare, Piscataway N.J.). After equilibration of the column with phosphate buffered saline (PBS), 2.5 mL of the lipoprotein fraction was loaded on the column and the flow-through discarded. The lipoprotein was then eluted with 3 mL of PBS. The LDL fractions were further diluted with PBS to obtain a 100 μg/mL apoB100 concentration.
LDL underwent oxidation following the addition of 10 μM CuSO4. To measure oxidation, 100 μL aliquots were removed and combined with 1.0 mL thiobarbituric acid (0.5%), 10 μL trichloroacetic acid (5%), 10 μL BHT (5 mg/mL in methanol), and 10 μL EDTA (5 mM). […] Sample TBARS concentrations were determined spectrophotometrically by measuring sample absorbances against a standard curve derived from the hydrolysis of 1,1,3,3-tetramethoxypropane.
Concurrent measurements of NO and ONOO^− were performed with tandem electrochemical nanosensors combined into one working unit with a total diameter of 200-400 nm. […]
The amperometric method (with a response time of 0.1 ms) provides a quantitative signal (current) that is directly proportional to changes (from basal levels) in NO or ONOO^− concentration. […] Basal NO or ONOO^− levels were measured by differential pulse voltammetry in separate experiments. […]

O=C(O)c1cccnc1 [Niacin, nicotinic acid]
NO/ONOO^− Ratio: 1.45 ± 0.14
NO release (calcium ionophore): 346 ± 17
NO/ONOO^− Ratio (listed as niacin): 1.45±0.14
